Measured values: US12577242B2, “Pyrrolopyridine and imidazopyridine antiviral compounds” (KATHOLIEKE UNIVERSITEIT LEUVEN, priority 2020, dated 2026)

Tests used:
[1] = system: Bovine viral diarrhea (BVD) virus; assay: Anti-BVDV CPE inhibition assay in MDBK cells; conditions: for EC50: Bovine viral diarrhea virus isolates and strains, MDBK, in Bos taurus, 96 h; for SI (selectivity index, ratio of CC50 and EC50): CC50/EC50, MDBK cells, BVD virus
[2] = Cytotoxicity in MDBK cells (no BVD virus added); conditions: bovine, MDBK cells (Madin-Darby bovine kidney), no virus added

Row | SMILES | EC50 [1] | SI (selectivity index, ratio of CC50 and EC50) [1] | CC50 at 4 days [2]
1 | Fc1ccc(-c2cc(Cn3ccc4nc(-c5ccccc5F)nc-4c3)on2)c(F)c1 [CPD-34, 3-(2,4-difluorophenyl)-5-((2-(2-fluorophenyl)-5H-imidazo[4,5-c]pyridin-5-yl)methyl)isoxazole] | 92 ± 49 nM | >543 | > 50000 nM
2 | Cc1cc(-c2nc3ccn(Cc4cc(-c5cc(F)ccc5F)no4)cc-3n2)cs1 [CPD-48, 3-(2,5-difluorophenyl)-5-((2-(5-methylthiophen-3-yl)-5H-imidazo[4,5-c]pyridin-5-yl)methyl)isoxazole] | 395 ± 22 nM | 68 | 27000 nM
3 | Cc1ccc2sc(Cn3ccc4nc(-c5cn(C)nc5C)nc-4c3)nc2c1 [CPD-11, 2-((2-(1,3-dimethyl-1H-pyrazol-4-yl)-5H-imidazo[4,5-c]pyridin-5-yl)methyl)-5-methylbenzo[d]thiazole] | 300 ± 100 nM | >167 | > 50000 nM
4 | Cc1c(-c2cc3ccn(Cn4nnc5ccccc54)cc-3n2)cnn1C [Compound VIII, 1-[(2-(1,5-dimethyl-1H-pyrazol-4-yl)-6H-pyrrolo[2,3-c]pyridin-6-yl)methyl]-1H-benzotriazole] | 335 ± 80 nM | >149 | > 50000 nM
5 | COc1ccccc1-c1nc2ccn(Cn3nnc4ccccc43)cc-2n1 [CPD-20, 1-((2-(2-methoxyphenyl)-5H-imidazo[4,5-c]pyridin-5-yl)methyl)-1H-benzo[d][1,2,3]triazole] | 87 ± 3 nM | >575 | > 50000 nM
6 | OCCOc1ccc(F)c(-c2cc3ccn(Cn4nnc5ccccc54)cc-3n2)c1 [Compound III, 2-(3-{6-[(1H-benzotriazol-1-yl)methyl]-6H-pyrrolo[2,3-c]pyridin-2-yl}-4-fluorophenoxy)ethan-1-ol] | 19 ± 7 nM | 1158 | 22000 nM
7 | Cc1ccc2oc(Cn3ccc4nc(-c5cnn(C)c5C)nc-4c3)nc2c1 [CPD-8, 2-((2-(1,5-dimethyl-1H-pyrazol-4-yl)-5H-imidazo[4,5-c]pyridin-5-yl)methyl)-5-methylbenzo[d]oxazole] | 79 ± 4 nM | >633 | > 50000 nM
8 | COc1ncccc1-c1cc2ccn(Cn3nnc4ccccc43)cc-2n1 [Compound VII, 1-{[2-(2-methoxypyridin-3-yl)-6H-pyrrolo[2,3-c]pyridin-6-yl]methyl}-1H-benzotriazole] | 16 ± 1 nM | 1375 | 22000 nM
9 | Cc1c(-c2nc3ccn(Cn4nnc5ccccc54)cc-3n2)cnn1C [CPD-9, 1-((2-(1,5-dimethyl-1H-pyrazol-4-yl)-5H-imidazo[4,5-c]pyridin-5-yl)methyl)-1H-benzo[d][1,2,3]triazole] | 346 ± 86 nM | 64 | 22000 nM
10 | Cc1ccc2nc(Cn3ccc4nc(-c5cc(OCCO)ccc5F)cc-4c3)sc2c1 [Compound XXIX, 2-(4-fluoro-3-(5-((6-methyl-1,3-benzothiazol-2-yl)methyl)-5H-pyrrolo[3,2-c]pyridin-2-yl)phenoxy)ethan-1-ol] | 37 ± 30 nM | 432 | 16000 nM
11 | Cc1ccc(-c2nc3ccn(Cc4cc(-c5cc(F)ccc5F)no4)cc-3n2)s1 [CPD-47, 3-(2,5-difluorophenyl)-5-((2-(5-methylthiophen-2-yl)-5H-imidazo[4,5-c]pyridin-5-yl)methyl)isoxazole] | 341 ± 25 nM | 70 | 24000 nM
12 | OCc1ccc2nc(Cn3ccc4nc(-c5ccccc5F)nc-4c3)sc2c1 [CPD-27, (2-((2-(2-fluorophenyl)-5H-imidazo[4,5-c]pyridin-5-yl)methyl)benzo[d]thiazol-6-yl)methanol] | 366 nM | >137 | > 50000 nM
13 | COc1ncccc1-c1cc2cn(Cc3nc4ccc(C)cc4s3)ccc-2n1 [Compound XXXI, 2-{[2-(2-methoxypyridin-3-yl)-5H-pyrrolo[3,2-c]pyridin-5-yl]methyl}-6-methyl-1,3-benzothiazole] | 6 ± 6 nM | 1667 | 10000 nM
14 | Cc1ccc2oc(Cn3ccc4nc(-c5ccccc5F)nc-4c3)nc2c1 [CPD-31, 2-((2-(2-fluorophenyl)-5H-imidazo[4,5-c]pyridin-5-yl)methyl)-5-methylbenzo[d]oxazole] | 306 ± 98 nM | >163 | > 50000 nM
15 | Cc1c(-c2cc3cn(Cn4nnc5ccccc54)ccc-3n2)cnn1C [Compound XXIV, 1-((2-(1,5-dimethyl-1H-pyrazol-4-yl)-5H-pyrrolo[3,2-c]pyridin-5-yl)methyl)-1H-benzotriazole] | 76 ± 19 nM | 158 | 12000 nM
16 | COc1ncccc1-c1nc2ccn(Cc3nc4cc(C)ccc4o3)cc-2n1 [CPD-16, 2-((2-(2-methoxypyridin-3-yl)-5H-imidazo[4,5-c]pyridin-5-yl)methyl)-5-methylbenzo[d]oxazole] | 117 nM | >427 | > 50000 nM
17 | Cc1c(-c2nc3ccn(Cc4nc5ccc6ccccc6c5s4)cc-3n2)cnn1C [CPD-6, 2-((2-(1,5-dimethyl-1H-pyrazol-4-yl)-5H-imidazo[4,5-c]pyridin-5-yl)methyl)naphtho[2,1-d]thiazole] | 14 ± 1 nM | >3571 | > 50000 nM
18 | COc1ccccc1-c1nc2ccn(Cc3cc(-c4cc(F)ccc4F)no3)cc-2n1 [CPD-19, 3-(2,5-difluorophenyl)-5-((2-(2-methoxyphenyl)-5H-imidazo[4,5-c]pyridin-5-yl)methyl)isoxazole] | 4 ± 1 nM | 4750 | 19000 nM
19 | Fc1ccccc1-c1nc2ccn(Cc3ccc(Cl)s3)cc-2n1 [CPD-30, 5-((5-chlorothiophen-2-yl)methyl)-2-(2-fluorophenyl)-5H-imidazo[4,5-c]pyridine] | 129 ± 61 nM | >388 | > 50000 nM
20 | Cc1ccc2nc(Cn3ccc4nc(-c5ccccc5F)cc-4c3)sc2c1 [Compound XXVIII, 2-{[2-(2-fluorophenyl)-5H-pyrrolo[3,2-c]pyridin-5-yl]methyl}-6-methyl-1,3-benzothiazole] | 16 nM | 188 | 3000 nM
21 | Cc1ccc2nc(Cn3ccc4nc(-c5cnn(C)c5C)cc-4c3)sc2c1 [Compound XXXII, 2-{[2-(1,5-dimethyl-1H-pyrazol-4-yl)-5H-pyrrolo[3,2-c]pyridin-5-yl]methyl}-6-methyl-1,3-benzothiazole] | 12 ± 8 nM | 1750 | 21000 nM
22 | COc1ncccc1-c1cc2ccn(Cc3nc4cc(C)ccc4o3)cc-2n1 [Compound X, 2-((2-(2-methoxypyridin-3-yl)-6H-pyrrolo[2,3-c]pyridin-6-yl)methyl)-5-methyl-1,3-benzoxazole] | 7 ± 4 nM | 571 | 4000 nM
